Assay type in all cases: physicochemical
The nature of series [1]: Kinetic solubility of SCY-078 freebase (MeOH desolvate, amorphous freebase). Particulars: for Form: residual solid by XRPD; for kinetic solubility (in words): room temperature. On the procedure:
Kinetic Solubility of SCY-078 Freebase: The kinetic solubility of SCY-078 MeOH desolvate and SCY-078 amorphous freebase was evaluated in SGF media, FaSSIF media, FeSSIF media, dextrose buffer (pH 5.5), phosphate buffer (pH 6.0), and phosphate buffer (pH 7.5) at room temperature. First, solid SCY-078 MeOH desolvate or SCY-078 amorphous freebase (˜15 mg) was weighed into a 4-mL vial. Then the relevant media (3.0 mL) was added and the suspensions were stirred on a rolling incubator (25 rpm) at room temperature for 1 hour, 4 hours, and 24 hours respectively. After stirring, 0.5 mL of suspension was centrifuged and filtered (0.45 μm). The residual solids were analyzed by XRPD, and the supernatant was measured by HPLC and pH meter.

The nature of series [2]: Dynamic Vapor Sorption (DVS) water uptake. How it is done: Dynamic Vapor Sorption (DVS)—The term “DVS” means the procedure described in below. The relative humidity at 25° C. was calibrated against deliquescence point of LiCl, Mg(NO3)2 and KCl.
The DVS of SCY-078 salts were tested according to the above method, using a 10-20 mg sample size. The DVS was measured using a Surface Measurement Systems (SMS) DVS Intrinsic.

Series [3] can be described thus: Approximate solubility in solvents at room temperature. Particulars: 25 °C, thermodynamic from solid. On the procedure: Approximate solubility of SCY-078 salts—The term “approximate solubility” with respect to SCY-078 salts means the procedure described in this paragraph. To conduct each experiment, a sample of a SCY-078 salt (˜2 mg) was added into a 3-mL glass vial. Then a solvent was added step-wise (100 μL per step) into the vials until the solids were dissolved or a total volume of 2 mL was reached.
First, MeOH desolvate (˜2 mg) was added to a 3-mL glass vial. Then the corresponding solvent was added step wise (100 μL) until the solution was visually clear or a total volume of 2 mL was reached.

Each structure is given as a SMILES string. In brackets after ≈: the same amount, converted by molar mass.

We go through 4 molecules from patent US20190153024A1, “NOVEL SALTS AND POLYMORPHS OF SCY-078” (priority 2015, published 2019).

`CC(C)[C@@H](C)[C@@]1(C)CC[C@]2(C)[C@H]3CC[C@@H]4[C@@]5(COC[C@]4(C)[C@@H](OC[C@](C)(N)C(C)(C)C)[C@H](n4ncnc4-c4ccncc4)C5)C3=CC[C@@]2(C)[C@@H]1C(=O)O` [Amorph.]: the Form result in series [1] (FaSSIF, 1 hour) is given as “Amorph”; in series [1] (FaSSIF, 4 hours) it was “Amorph”; in series [1] (FaSSIF, 24 hours), “Amorph”; in series [1] (FeSSIF, 1 hour) it was “Amorph”; in series [1] (FeSSIF, 4 hours) it was “Amorph”; in series [1] (FeSSIF, 24 hours), “Amorph”. Besides, the Form result is “Amorph” in series [1] (pH 5.5 buffer, 4 hours); “Amorph” in series [1] (pH 5.5 buffer, 24 hours); “Amorph” in series [1] (pH 6.0 buffer, 4 hours); “Amorph,” in series [1] (pH 6.0 buffer, 24 hours); “Amorph” in series [1] (pH 7.5 buffer, 4 hours); “Amorph” in series [1] (pH 7.5 buffer, 24 hours).

With `CC(C)[C@@H](C)[C@@]1(C)CC[C@]2(C)[C@H]3CC[C@@H]4[C@@]5(COC[C@]4(C)[C@@H](OC[C@](C)(N)C(C)(C)C)[C@H](n4ncnc4-c4ccncc4)C5)C3=CC[C@@]2(C)[C@@H]1C(=O)O` [SCY-078 amorphous freebase], the “water uptake (DVS)” value in series [2] (25° C., 80% RH) is on record as about 4.8%. In addition, in series [2] (after DVS experiment), the “solid form by XRPD after DVS” value is recorded as “no form change”.

Take `CC(C)[C@@H](C)[C@@]1(C)CC[C@]2(C)[C@H]3CC[C@@H]4[C@@]5(COC[C@]4(C)[C@@H](OC[C@](C)(N)C(C)(C)C)[C@H](n4ncnc4-c4ccncc4)C5)C3=CC[C@@]2(C)[C@@H]1C(=O)O` [SCY-078, (1S,4aR,6aS,7R,8R,10aR,10bR,12aR,14R,15R)-15-[[(2R)-2-amino-2,3,3-trimethylbutyl]oxy]-8-[(1R)-1,2-dimethylpropyl]-14-[5-(4-pyridinyl)-1H-1,2,4-triazol-1-yl]-1,6,6a,7,8,9,10,10a,10b,11,12,12a-dodecahydro-1,6a,8,10a-tetramethyl-4H-4a-propano-2H -phenanthro[1,2-c]pyran-7-carboxylic acid]: the solubility is over 37 mg/mL in series [3] (organic solvent or mixture, 1,4-Dioxane, RT); over 25 mg/mL in series [3] (organic solvent or mixture, 2-MeTHF, RT); over 25 mg/mL in series [3] (organic solvent or mixture, Acetic Acid, RT); 8.3 to 12.5 mg/mL (≈ 11.4 to 17.1 mM) in series [3] (organic solvent or mixture, Acetone, RT); over 33 mg/mL in series [3] (organic solvent or mixture, CHCl3, RT); over 40 mg/mL in series [3] (organic solvent or mixture, DMA, RT). In addition, the solubility in series [3] (organic solvent or mixture, DMSO, RT) is over 32 mg/mL; in series [3] (organic solvent or mixture, EtOAc, RT) it was over 23 mg/mL; in series [3] (organic solvent or mixture, EtOH, RT), 2.6 to 3 mg/mL (≈ 3.56 to 4.11 mM); in series [3] (organic solvent or mixture, Heptane, RT), under 2.2 mg/mL; in series [3] (organic solvent or mixture, IPA, RT), 7 to 11 mg/mL (≈ 9.59 to 15.1 mM); in series [3] (organic solvent or mixture, MIBK, RT), over 29 mg/mL. Besides, the solubility in series [3] (organic solvent or mixture, MTBE, RT) was over 23 mg/mL; in series [3] (organic solvent or mixture, MeOH, RT) it was 5.4 to 6.3 mg/mL (≈ 7.4 to 8.63 mM); in series [3] (organic solvent or mixture, NMP, RT), over 45 mg/mL; in series [3] (organic solvent or mixture, THF, RT), over 23 mg/mL; in series [3] (organic solvent or mixture, Toluene, RT) it was 6.8 to 8.5 mg/mL (≈ 9.31 to 11.6 mM); in series [3] (organic solvent or mixture, iPrOAc, RT), 10.5 to 21 mg/mL (≈ 14.4 to 28.8 mM). Further, the solubility is 2.6 to 2.9 mg/mL (≈ 3.56 to 3.97 mM) in series [3] (acetonitrile (ACN), organic solvent or mixture, ACN, RT) and under 1.9 mg/mL in series [3] (water (H2O), water, H2O, RT).

Take `CC(C)[C@@H](C)[C@@]1(C)CC[C@]2(C)[C@H]3CC[C@@H]4[C@@]5(COC[C@]4(C)[C@@H](OC[C@](C)(N)C(C)(C)C)[C@H](n4ncnc4-c4ccncc4)C5)C3=CC[C@@]2(C)[C@@H]1C(=O)O` [SCY-078 MeOH desolvate]: the “kinetic solubility (in words)” value is given as “only sparingly soluble” in series [1] (FaSSIF and pH 5.5, pH 6.0, pH 7.5 buffers); “high solubility” in series [1] (SGF and FeSSIF). Besides, the “solid form change during solubility measurement” value in series [1] (FeSSIF, FaSSIF, pH 5.5 and 6.0 buffers) was “Solid form change was observed”.
